Laboratory results taken from article PMC7918733, “Biological Profiling of Semisynthetic C19-Functionalized Ferruginol and Sugiol Analogues” (Antibiotics, 2021).
Read-outs that look alike come from different tables or passages of the source.

What was measured:
HeLa (Cervix) = settings: cited from earlier work
T-47D (Breast) = settings: cited from earlier work
[1] = biological target: T1, GABAA receptor subtype (α1β2γ2S) (Homo sapiens, UniProt P14867+P18507+P47870); set-up: expressed in transfected cells; host or cells: Xenopus laevis oocytes; settings: cited from earlier work
WiDr (Colon) = settings: cited from earlier work
SW1573 (Lung) = settings: cited from earlier work
[2] = tested on: L. guyanensis promastigotes; set-up: method as in PMID 30840453; settings: C18-congeners, cited from earlier work; for IC50: read-out: L. guyanensis IC50 ± SD
Macrophages J774 = settings: cited from earlier work
A549 (Lung) = settings: cited from earlier work
HBL-100 (Breast) = settings: cited from earlier work
HepG2 = assay: Cytotoxicity on mammalian cell lines; assay type: cell-based; settings: Homo sapiens, HepG2, read-out: HepG2 EC50
Experimental: (§1) Assays were performed by using previously described DNA stain-based assay and methods, including cytotoxicity assays.

RAJI = assay: Cytotoxicity on mammalian cell lines; assay type: cell-based; settings: Homo sapiens, read-out: RAJI EC50
Experimental: as §1

BJ = assay: Cytotoxicity on mammalian cell lines; assay type: cell-based; settings: Homo sapiens, read-out: BJ EC50
Experimental: as §1

HEK293 = assay: Cytotoxicity on mammalian cell lines; assay type: cell-based; settings: Homo sapiens, HEK293, read-out: HEK293 EC50
Experimental: as §1

P. falciparum K1 strain = assay: Antiplasmodial DNA stain-based growth assay; assay type: cell-based; settings: Plasmodium falciparum, K1, 72 h, read-out: P. falciparum K1 EC50
Experimental: as §1

P. falciparum 3D7 strain = assay: Antiplasmodial DNA stain-based growth assay; assay type: cell-based; settings: Plasmodium falciparum, 3D7, 72 h, read-out: P. falciparum 3D7 EC50
Experimental: as §1

[3] = biological target: T1, GABAA receptor subtype (α1β2γ2S); assay: Two-microelectrode voltage-clamp in Xenopus laevis oocytes
Experimental: All molecules were tested at concentrations of 10, 100 μM and compared with dehydroabietic acid (DHA) (3) as a reference [16].

[4] = tested on: L. donovani promastigotes; settings: C18-congeners, read-out: L. donovani IC50 ± SD; cited from earlier work
[5] = tested on: L. infantum promastigotes; set-up: method as in PMID 30840453; settings: C18-congeners, read-out: L. infantum IC50 ± SD; cited from earlier work
[6] = tested on: L. amazonensis promastigotes; set-up: method as in PMID 30840453; settings: C18-congeners, read-out: L. amazonensis IC50 ± SD; cited from earlier work
[7] = read-out: Macrophages J774 CC50, C18-congeners

T1 sequence (P14867 28-456): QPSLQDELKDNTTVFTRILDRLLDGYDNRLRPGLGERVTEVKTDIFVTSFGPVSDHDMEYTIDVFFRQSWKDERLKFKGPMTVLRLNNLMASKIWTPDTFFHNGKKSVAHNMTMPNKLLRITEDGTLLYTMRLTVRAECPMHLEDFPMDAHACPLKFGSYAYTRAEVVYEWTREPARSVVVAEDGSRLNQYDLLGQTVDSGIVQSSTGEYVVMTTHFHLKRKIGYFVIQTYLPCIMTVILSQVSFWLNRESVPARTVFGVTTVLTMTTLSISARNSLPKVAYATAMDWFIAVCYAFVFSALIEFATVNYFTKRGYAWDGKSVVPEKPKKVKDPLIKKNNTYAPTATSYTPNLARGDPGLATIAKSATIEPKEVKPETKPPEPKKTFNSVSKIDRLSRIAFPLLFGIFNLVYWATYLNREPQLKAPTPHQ
T1 sequence (P47870 26-512): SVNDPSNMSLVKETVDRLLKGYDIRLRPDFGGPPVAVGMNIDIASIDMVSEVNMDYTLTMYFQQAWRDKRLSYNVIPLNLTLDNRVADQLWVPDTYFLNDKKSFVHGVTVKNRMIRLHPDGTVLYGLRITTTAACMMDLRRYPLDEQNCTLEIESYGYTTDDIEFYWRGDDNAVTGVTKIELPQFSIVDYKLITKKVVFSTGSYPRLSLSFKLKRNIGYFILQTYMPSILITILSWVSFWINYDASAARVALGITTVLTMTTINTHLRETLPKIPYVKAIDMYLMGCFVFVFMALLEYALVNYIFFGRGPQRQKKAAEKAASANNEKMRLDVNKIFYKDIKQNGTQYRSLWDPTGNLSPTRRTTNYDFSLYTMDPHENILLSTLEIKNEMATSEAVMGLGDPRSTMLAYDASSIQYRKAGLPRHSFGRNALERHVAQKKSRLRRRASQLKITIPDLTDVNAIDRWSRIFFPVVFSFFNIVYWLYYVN
T1 sequence (P18507 40-467 isoform P18507-1 limits assumed): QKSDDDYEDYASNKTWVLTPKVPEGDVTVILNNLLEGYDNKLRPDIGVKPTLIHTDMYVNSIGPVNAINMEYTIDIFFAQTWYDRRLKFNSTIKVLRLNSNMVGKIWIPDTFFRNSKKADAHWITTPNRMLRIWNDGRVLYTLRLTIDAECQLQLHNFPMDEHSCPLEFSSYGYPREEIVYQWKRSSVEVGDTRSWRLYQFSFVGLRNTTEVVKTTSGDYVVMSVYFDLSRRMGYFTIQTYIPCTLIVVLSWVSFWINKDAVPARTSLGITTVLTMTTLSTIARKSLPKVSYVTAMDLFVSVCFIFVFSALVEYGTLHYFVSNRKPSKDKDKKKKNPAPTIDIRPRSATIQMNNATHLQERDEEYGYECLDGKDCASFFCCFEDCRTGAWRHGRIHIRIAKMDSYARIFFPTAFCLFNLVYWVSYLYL

SMILES	GI50 (HeLa (Cervix); C18-congeners)	GI50 (T-47D (Breast); C18-congeners)	IGABA Potentiation of 10 µM (%) ([1]; C18-congeners)	IGABA Potentiation of 100 µM (%) ([1]; C18-congeners)	GI50 (WiDr (Colon); C18-congeners)	GI50 (SW1573 (Lung); C18-congeners)	GI50 (A549 (Lung); C18-congeners)	GI50 (HBL-100 (Breast); C18-congeners)	IC50 [4]	IC50 [5]	IC50 [2]	CC50 (Macrophages J774; [7])	IC50 [6]	also measured
CC(C)c1cc2c(cc1O)C1(C)CCCC(C)(C(=O)O)C1CC2=O (single isomer, unassigned; (+)) [Compound 8b, (+)-liquiditerpenoic acid A]	85 ± 21 µM	> 100 µM	−2.2 ± 4.4%	−21.1 ± 7.1%	> 100 µM	> 100 µM	> 100 µM	> 100 µM	–	–	–	–	–	L. guyanensis IC50 ± SD [2]: inactive; CC50 (Macrophages J774): 219 ± 15 µM
CCN(CC)CCCC(C)Nc1ccnc2cc(Cl)ccc12 (stereo not drawn) [Chloroquine, reference compound]	–	–	–	–	–	–	–	–	–	–	–	–	–	EC50 (HepG2): > 25 µM; EC50 (RAJI): > 25 µM; EC50 (BJ): > 25 µM; EC50 (HEK293): > 25 µM; EC50 (P. falciparum K1 strain): 0.69 µM; EC50 (P. falciparum 3D7 strain): 0.023 µM
CC(C)c1cc2c(cc1O)[C@@]1(C)CCCC(C)(C)[C@@H]1CC2=O [Compound 2, sugiol]	–	–	–	–	–	–	–	–	–	–	–	–	–	GI50 (A549 (Lung)): 79.8 ± 2.2 µM
CC(C)c1ccc2c(c1)CC[C@H]1[C@](C)(C(=O)O)CCC[C@]21C [Compound 3, dehydroabietic acid, reference compound]	–	–	–	–	–	–	–	–	–	–	–	–	–	activation at 10 µM ([3]; read-out: IGABA Potentiation of 10 µM (%)): 192 ± 10%; activation at 100 µM ([3]; read-out: IGABA Potentiation of 100 µM (%)): 789 ± 82%
CC(C)c1ccc2c(c1)CC[C@H]1[C@@](C)(C(=O)O)CCC[C@]21C [Compound 6, callitrisic acid]	–	–	–	–	–	–	–	–	–	–	–	–	–	IGABA Potentiation of 10 µM (%) [1]: 14 ± 5%; IGABA Potentiation of 100 µM (%) [1]: 269 ± 24%
COC(=O)[C@@]1(C)CCC[C@]2(C)c3ccc(C(C)C)cc3CC[C@@H]12 [Compound 7, methyl callitrisate]	–	–	–	–	–	–	–	–	–	–	–	–	–	GI50 (HeLa (Cervix)): 16 ± 2.5 µM; GI50 (T-47D (Breast)): 8.8 ± 2.7 µM; GI50 (WiDr (Colon)): 6.4 ± 2.1 µM; GI50 (SW1573 (Lung)): 17 ± 2.2 µM; GI50 (A549 (Lung)): 10 ± 1.9 µM; GI50 (HBL-100 (Breast)): 14 ± 5 µM
COC(=O)[C@]1(C)CCC[C@]2(C)c3cc(OC(C)=O)c(C(C)C)cc3CC[C@@H]12 [Compound 10b]	4.4 ± 1.1 µM	14 ± 2.9 µM	5.1 ± 2.1%	26.3 ± 8.9%	16 ± 2.5 µM	12 ± 3.2 µM	11 ± 1.8 µM	15 ± 3.9 µM	8.1 ± 0.7 µM	1.3 ± 0.1 µM	5.5 ± 0.7 µM	26.5 ± 2.7 µM	3.2 ± 0.3 µM	–
COC(=O)[C@]1(C)CCC[C@]2(C)c3cc(OC(C)=O)c(C(C)C)cc3C(=O)C[C@@H]12 [Compound 11b]	13 ± 2.3 µM	20 ± 2.9 µM	−1.0 ± 2.8%	46.7 ± 8.3%	19 ± 1.7 µM	17 ± 1.9 µM	14 ± 0.4 µM	16 ± 1.5 µM	4.4 ± 0.5 µM	0.7 ± 0.2 µM	1.3 ± 0.1 µM	17.8 ± 2.8 µM	0.65 ± 0.03 µM	–
COC(=O)[C@]1(C)CCC[C@]2(C)c3cc(O)c(C(C)C)cc3CC[C@@H]12 [Compound 12b]	5.8 ± 0.5 µM	19 ± 3.8 µM	23.7 ± 9.6%	378.0 ± 65.6%	23 ± 4.4 µM	11 ± 2 µM	9.4 ± 2.6 µM	9.7 ± 2.7 µM	9.21 ± 0.06 µM	5 ± 0.3 µM	5.9 ± 1.1 µM	34.2 ± 3.1 µM	3.9 ± 0.1 µM	–
